Data: patent US10100030B2 (Kissei Pharmaceutical Co., Ltd., priority 2013, dated 2018)

Legend:
[1] = test system: cisplatin-induced acute and delayed emetic response; test: Effect on cisplatin-induced acute and delayed emetic response; assay type: in vivo, ferret
Protocol: No 1, 1 mg/kg, po) in the acute phase, and a value of control group, the group intravenously administered with 3 mg/kg of the compound of Example 1 (Ex. […] No 1, 1 mg/kg, po) in the delayed phase from the left respectively. The vertical axes show the number of retching and vomiting ([…]) (the mean+standard error of 5 examples of control group, the mean+standard error of 5 examples of the group intravenously administered, and the mean+standard error of 5 examples of the group orally administered). Effect on Cisplatin-induced Acute and Delayed Emetic Response The test compound solution was prepared by dissolving the test compound in a vehicle (a mixture of 50% N,N-dimethylformamide (Wako Pure Chemical Industries), 30% propylene glycol (Wako Pure Chemical Industries) and 4% 2-hydroxypropyl-β-cyclodextrin (Wako Pure Chemical Industries)). The vehicle only was administered to the control group. Under anesthesia with isoflurane, 3 mg/kg of the test compound was intravenously administered to a male ferret (Marshall BioResources Japan) from the jugular vein. Cisplatin, which was heated to 40-50° C., was intraperitoneally administered at 5 mg/kg one hour after the drug administration. […] The solvent only was administered to the control group. The test compound was orally administered to a male ferret (Marshall BioResources Japan). The oral administration was performed every 24 hours at 1 mg/kg three times in total. Cisplatin, which was heated to 40-50° C., was intraperitoneally administered at 5 mg/kg one hour after the first oral administration of the test compound.

[2] = Measurement of drug concentrations in the brain after foot-tapping test; assay type: in vivo; details: male; 0.3 mg/kg iv, after foot-tapping was finished, gerbil brain; read-out: Conc. (drug concentration in the brain)
Protocol: (§1) A male gerbil (Japan SLC) was anesthetized with isoflurane, and 0.3 mg/kg of a test compound was administered from the jugular vein. After four hours, GR73632 (5 pmol/5 μl), which is an NK1 receptor agonist, was administered into the cerebral ventricle at the part 1 mm lateral to and 4.5 mm below the bregma in the head, under anesthesia with isoflurane. After the administration, the gerbil was moved to an observation cage, and the foot-tapping period during five minutes after the recovery of the righting reflex was measured. The foot-tapping inhibition rate (%) of each test compound was calculated by the following equation. Foot-tapping inhibition rate (%)={1−(Foot-tapping period when test compound was administered)/(Foot-tapping period when solvent was administered)}×100 (2) Measurement of Drug Concentrations
After foot-tapping was finished, laparotomy was performed immediately under anesthesia with ether, and a blood sample was taken from the abdominal vena cava. At the same time, the brain was extracted. Through a quantitative analysis using liquid chromatography-mass spectrometry (LC/MS), the concentrations of the test compound in the plasma and the brain were measured.
(§2) In the table, Ex. No. means the Example number. Inhibition (%) is the foot-tapping inhibition rate, and Conc. (nM) is the drug concentration in the brain.

NK1 receptor = NK1 receptor (Meriones unguiculatus (Mongolian jird) (Gerbillus unguiculatus), UniProt Q5DUB1); test: Effect on GR73632-induced foot-tapping; assay type: in vivo; details: 0.3 mg/kg from the jugular vein, GR73632 after four hours, male gerbil
Protocol: (1) Effect on Foot-tapping
as §1, §2

human NK1 receptor = human NK1 receptor (Homo sapiens (Human), UniProt P25103); test: Inhibitory effect on human NK1 receptor (substance P-induced increase in intracellular calcium concentration); assay type: cell-based; details: HEK-293T; substance P 1 μM, compound 0.1 μM; human NK1 receptor-expressing 293T cells; read-out: SPRR (Substance P-Response Remaining)
Protocol: Inhibitory Effect on Human NK1 Receptor
(1) Preparation of Human NK1 Receptor-expressing Cells
Human NK1 receptor-expressing cells were prepared by the same methods as those described in 2-3 and 2-4 of Test Example 1.
(2) Study on Inhibitory Effect on Increase in Intracellular Calcium Concentration
The human NK1 receptor-expressing cells were washed with 300 μL/well of a washing solution (20 mM HEPES/Hank's Balanced Salt Solution (HBSS) […]). A fluorescent calcium indicator (Fluo-4 Direct Calcium Assay Kit, Life Technologies, containing 0.42 mM probenecid and 0.1% bovine serum albumin, prepared according to the protocol of the product) was added to the wells at 150 μL/well, and the plate was incubated at 37° C. for 30 minutes in an incubator. Then, DMSO solutions of a test compound, which were prepared at an 80-time higher concentration using 100% dimethyl sulfoxide (DMSO), were added to the wells at 2.5 μL/well (final concentrations of 0.1, 1 and 10 μM), and the solutions were mixed. Then, the plate was further incubated at 37° C. for 30 minutes in an incubator. After 30 minutes, the intracellular calcium concentrations were measured immediately.
The intracellular calcium concentrations were each measured as a fluorescent signal using FDSS (registered trademark) 7000 (Hamamatsu Photonics). A substance P (Peptide Institute, Inc.) solution which was prepared at 0.4 μM or 4 μM using an assay buffer (20 mM HEPES/Hank's Balanced Salt Solution (HBSS) pH 7.3, containing 0.1% bovine serum albumin) was added automatically to each well at 50 μL/well (final concentration of 0.1 or 1 μM) 10 seconds after starting reading, and the fluorescent signal was measured up to 120 seconds.
The intracellular calcium concentration (%) of the cells to which a test compound was added was calculated by the equation below, where the fluorescent signal of the group to which the vehicle (DMSO) was added was regarded as 100%, and the fluorescent signal before the addition of substance P was regarded as 0%. Intracellular calcium concentration(%)=(Fluorescent signal of test compound addition group)/(Fluorescent signal of vehicle addition group)×100
The intracellular calcium concentration (%) calculated was regarded as the remaining agonist activity of substance P (Substance P-Response Remaining: SPRR). In the table, Ex. No. means the Example number. SPRR (%) is the value obtained when the concentration of substance P was 1 μM and the concentration of the compound was 0.1 μM.

Sequence of NK1 receptor (Q5DUB1 whole entry): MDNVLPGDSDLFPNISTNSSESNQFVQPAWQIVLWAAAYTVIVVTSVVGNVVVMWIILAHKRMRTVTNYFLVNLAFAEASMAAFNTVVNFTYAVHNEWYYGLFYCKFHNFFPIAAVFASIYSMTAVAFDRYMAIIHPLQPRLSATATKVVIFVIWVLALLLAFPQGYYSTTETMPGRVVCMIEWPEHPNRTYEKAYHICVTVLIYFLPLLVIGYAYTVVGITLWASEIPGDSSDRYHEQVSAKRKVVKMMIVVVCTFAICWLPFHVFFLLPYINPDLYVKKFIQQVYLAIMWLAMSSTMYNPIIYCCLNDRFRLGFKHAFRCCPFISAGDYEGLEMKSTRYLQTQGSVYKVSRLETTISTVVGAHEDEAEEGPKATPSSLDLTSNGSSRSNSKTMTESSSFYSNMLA
Sequence of human NK1 receptor (P25103 whole entry): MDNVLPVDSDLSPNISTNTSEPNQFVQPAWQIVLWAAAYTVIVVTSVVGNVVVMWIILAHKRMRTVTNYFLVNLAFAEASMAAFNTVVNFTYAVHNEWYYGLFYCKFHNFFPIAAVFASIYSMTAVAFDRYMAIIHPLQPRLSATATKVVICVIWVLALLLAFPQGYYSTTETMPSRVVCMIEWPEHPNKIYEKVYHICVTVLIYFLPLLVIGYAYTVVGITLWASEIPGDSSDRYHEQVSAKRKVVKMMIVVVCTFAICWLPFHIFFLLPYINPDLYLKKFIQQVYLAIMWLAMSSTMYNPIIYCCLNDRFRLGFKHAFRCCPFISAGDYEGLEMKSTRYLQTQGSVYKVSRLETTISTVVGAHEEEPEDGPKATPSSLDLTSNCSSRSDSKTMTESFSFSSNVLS

concentration at 4 h [2]: 275 nM
Inhibition (foot-tapping inhibition rate) (NK1 receptor): 100%
remaining activity at 0.1 µM (human NK1 receptor): 28%
SMILES: Cc1cc(F)ccc1-c1cc(N2CCC(CC(=O)O)CC2)ncc1N(C)C(=O)C(C)(C)c1cc(C(F)(F)F)cc(C(F)(F)F)c1 [Example 1]
number of retching and vomiting ([1]; 1 mg/kg po every 24 hours three times, acute phase (up to 24 hours after cisplatin)): inhibition of the number of retching and vomiting was observed
number of retching and vomiting ([1]; 1 mg/kg po every 24 hours three times, delayed phase (24 to 72 hours after cisplatin)): inhibition of the number of retching and vomiting was observed
number of retching and vomiting ([1]; 3 mg/kg iv, acute phase (up to 24 hours after cisplatin)): inhibition of the number of retching and vomiting was observed
number of retching and vomiting ([1]; 3 mg/kg iv, delayed phase (24 to 72 hours after cisplatin)): inhibition of the number of retching and vomiting was observed
